Data published in patent publication US20190262363A1, “ANTAGONIST OF MINERALOCORTICOID RECEPTOR FOR THE TREATMENT OF OSTEOARTHRITIS” (INSERM (INSTITUT NATIONAL DE LA SANTÉ ET DE LA RECHERCHE …, priority 2016, published 2019).
“Also recorded” adds a separate entry of the source.

Tested on: knee joints of SHHF^cp/cp rats (metabolic syndrome associated osteoarthritis model) and lean SHHF^+/+ rats
Test: Chronic eplerenone treatment in lean SHHF+/+ and MetS SHHFcp/cp rats; knee joint histology and OARSI scoring
Assay type: in vivo, rat
Excerpt: In this study were used lean SHHF^+/+ (spontaneously hypertensive heart failure) rats as controls and obese SHHF^cp/cp rats, which have been characterized as a good model for metabolic syndrome (MetS). […] The absence of eple means that the considered rats are part of a control placebo group.
Animals of both lean SHHF^+/+ and MetS SHHF^cp/cp genotypes were divided randomly into two groups. Group I (n=4 for SHHF^+/+ and n=4 for SHHF^cp/cp) was given placebo and group II (n=4 for SHHF^+/+ and n=9 for SHHF^cp/cp) was given 100 mg.kg-1.day-1 of the selective MRA eplerenone (pure active molecule provided by Pfizer) in drinking water from 1.5 months to 12.5 months of age. The knee joints of 1.5- and 12.5- month-old specimens of each group (untreated SHHF^+/+ and SHHF^cp/cp and their treated counterparts) were fixed in 4% paraformaldehyde, decalcified in EDTA-phosphate buffered solution and then embedded in paraffin. […] thick adjacent sections were stained with Toluidine Blue, Hematoxylin and Eosin or submitted to collagen II immunohistochemistry in order to investigate cartilage destruction, osteophyte formation and lesions of the synovial tissue, respectively. The corresponding scores following OARSI guidelines were done blindly by independent researchers.

COC(=O)[C@@H]1CC2=CC(=O)CC[C@]2(C)[C@@]23O[C@@H]2C[C@@]2(C)[C@@H](CC[C@@]24CCC(=O)O4)[C@H]13 [eplerenone, Pregn-4-ene-7,21-dicarboxylic acid, 9,11-epoxy-17-hydroxy-3-oxo-,y-lactone, methyl ester, (7α,11α,17β)]
Cartilage histology (toluidine blue): fibrillations and loss of proteoglycans (12.5SHHF^cp/cp Eple knee joints vs untreated 12.5SHHF^cp/cp, FIG. 1D vs. 1C): markedly reduced fibrillations and loss of proteoglycans | Osteophytes, collagen II immunostaining (12.5SHHF^cp/cp Eple knee joints vs untreated 12.5SHHF^cp/cp, FIG. 2D vs. 2C): alleviated osteophytes | Synovial tissue histology (Hematoxylin & Eosin): inflammation and fibrosis (12.5SHHF^cp/cp Eple knee joints vs untreated 12.5SHHF^cp/cp, FIG. 3D vs. 3C): attenuated inflammation and fibrosis of the synovial tissue | OARSI scoring of the joint cartilage degradation (cartilage alterations) (12.5SHHF^cp/cp Eple rats vs placebo 12.5SHHF^cp/cp, 100 mg.kg-1.day-1 in drinking water from 1.5 to 12.5 months of age, FIG. 1E): prevents the degradation of joint cartilage; also recorded: drastically decreases the cartilage alterations | OARSI scoring of osteophyte (osteophyte formation) (12.5SHHF^cp/cp Eple rats vs placebo 12.5SHHF^cp/cp, 100 mg.kg-1.day-1 in drinking water from 1.5 to 12.5 months of age, FIG. 2E): reduces osteophyte formation; also recorded: significantly hampers osteophyte formation | OARSI scoring of the joint inflammation (synovial inflammatory and fibrotic events) (12.5SHHF^cp/cp Eple rats vs placebo 12.5SHHF^cp/cp, 100 mg.kg-1.day-1 in drinking water from 1.5 to 12.5 months of age, FIG. 3E): reduces the joint inflammation; also recorded: markedly reduces the level of inflammatory and fibrotic events | Knee joint phenotype (MetS 12.5SHHF^cp/cp Eple rats treated from 1.5 months onward, compared to placebo 12.5SHHF^cp/cp): phenotypes very similar to those of their ^12.5SHHF^+/+ counterparts | Knee joint phenotype (lean 12.5SHHF^+/+ eple rats, 100 mg.kg-1.day-1 in drinking water from 1.5 to 12.5 months of age): displayed normal phenotype
